Where two headings read alike, the source gives them in different places.
What was measured:
[1] = Safety in elagolix/ketoconazole interaction study (adverse events, vital signs, ECGs, laboratory tests); type: in vivo, human
Procedure: (§1) Each subject received elagolix 150 mg single dose alone and on the 4th day of a six-day regimen of ketoconazole 400 mg q.d.
Adverse event rates across treatment periods were 0% (elagolix alone), 82% (ketoconazole alone), and 36% (co-administration). The most common adverse event was nausea, which was noted as probably related to ketoconazole alone. […] Mean elagolix plasma concentration—time profiles for elagolix administered with ketoconazole, versus elagolix administered alone, are shown in FIG. 2.

[2] = Pharmacokinetic interaction between elagolix and ketoconazole (open-label, two-period, sequential study); type: in vivo, human; conditions: elagolix 150 mg single dose on 4th day of six-day ketoconazole 400 mg q.d. vs elagolix alone; healthy premenopausal females
Procedure: In a second embodiment of this invention, it was discovered that ketoconazole increased elagolix exposure levels.
as §1
Analysis of variance was performed to compare the pharmacokinetic parameters of elagolix with and without ketoconazole.

[3] = in vivo
Procedure: This was an open-label, two-period, sequential study conducted in 12 females chosen according to the protocol selection criteria. Each subject received elagolix 150 mg single dose with and without rifampin 600 mg q.d. for 10 days. Intensive blood samples for elagolix assay were collected up to 36 hours after elagolix dosing in both periods. Safety data, including adverse event monitoring, vital signs, ECGs, and laboratory tests were collected during the study.
Values for elagolix maximum concentration (Cmax) and area-under-the-curve (AUC) were estimated using noncompartmental methods. Analysis of variance was performed to compare elagolix Cmax and AUC with and without rifampin.

COc1cccc(-c2c(C)n(Cc3c(F)cccc3C(F)(F)F)c(=O)n(C[C@H](NCCCC(=O)[O-])c3ccccc3)c2=O)c1F.[Na+] [Elagolix, 4-((R)-2-[5-(2-fluoro-3-methoxy-phenyl)-3-(2-fluoro-6-trifluoromethyl-benzyl)-4-methyl-2,6-dioxo-3,6-dihydro-2H-pyrimidin-1-yl]-1-phenyl-ethylamino)-butyric acid sodium salt]
Vital signs, ECG or laboratory measurements ([1]; in vivo): No clinically significant vital signs, ECG or laboratory measurements were observed | Elagolix AUC increase [2]: 2.2 fold | Elagolix Cmax increase [2]: 1.8 fold | Vital signs, ECG or laboratory measurements [3]: No clinically significant vital signs, ECG or laboratory measurements were observed

CC(=O)N1CCN(c2ccc(OCC3COC(Cn4ccnc4)(c4ccc(Cl)cc4Cl)O3)cc2)CC1 (centres unmarked) [ketoconazole, Ketoconazole, reference compound]
Adverse event rate ([1]; drug alone treatment period, elagolix 150 mg single dose or ketoconazole 400 mg q.d., healthy premenopausal females): 82%

Reference: patent US10682351B2, “Methods of administering elagolix” (AbbVie Inc., priority 2015, dated 2020)
